Tests used:
[1] = tested on: forearm skin (aging / photoaging skin); experiment: Forearm skin thickness measured by micrometer calipers after topical application; format: in vivo, human; conditions: 10% solution twice daily; for appearance of treated forearm skin compared with untreated forearm: at end of treatment (6 to 9 weeks)
Experimental: Skin thickness was measured by micrometer calipers to study skin changes associated with aging as follows: The skin was grasped with a 2×6 cm metal hinge, the internal faces of that were coated with emery cloth to prevent slippage, and manually squeezed to threshold subject discomfort. Combined thickness of two whole-skin layers including thickness of the two hinge leaves was measured with micrometer calipers. Thickness of the two hinge leaves was subtracted to determine the actual thickness of two whole-skin layers. Triplicate measurements on treated sites were done and an average number was used for calculation of the skin thickness. N-Propanoyl-D-glucosamine 10 g was dissolved in 90 ml solution prepared from water 40 parts, ethanol 40 parts and propylene glycol 20 parts by volume. The formulation thus prepared had pH 6.0 and contained 10% N-propanoyl-D-glucosamine solution.

[2] = tested on: fine wrinkles (crow's feet); experiment: Topical treatment of fine wrinkles (crow's feet) near the eyes; format: in vivo, human; conditions: 5% cream of Example 7, topical twice daily, five weeks, person
Experimental: For subjective disorders such as pain, itch, or the like, the therapeutic effects were evaluated or judged by the subjects or patients. For example, the subjects evaluated whether the pain or itch had disappeared within hours or days. For other detectable symptoms or syndromes, the therapeutic effects or improvements were evaluated or judged by medical professionals. A subject, applied topically twice daily 5% N-propanoyl-D-glucosamine cream as formulated in Example 7 to fine wrinkles (crow's feet) near the eyes for five weeks.

[3] = tested on: itchy lesion due to atopic eczema; experiment: Topical treatment of itch from atopic eczema in a human subject; format: in vivo; conditions: 5% cream
Experimental: For subjective disorders such as pain, itch, or the like, the therapeutic effects were evaluated or judged by the subjects or patients. For example, the subjects evaluated whether the pain or itch had disappeared within hours or days. For other detectable symptoms or syndromes, the therapeutic effects or improvements were evaluated or judged by medical professionals. N-Propanoyl-D-glucosamine 5 g was dissolved in water 15 ml and propylene glycol 5 ml, and the solution thus obtained was mixed uniformly with hydrophilic ointment or oil-in-water emulsion 75 g. The cream thus formulated had pH 4.7 and contained 5% N-propanoyl-D-glucosamine. A subject, having an itchy lesion on their right foot due to atopic eczema, topically applied the above cream to the lesion. […] A human subject having itchy skin from atopic eczema topically applied 5% N-propanoyl-glucosamine cream to the lesion.

CCC(=O)N[C@H]1C(O)O[C@H](CO)[C@@H](O)[C@@H]1O (stereo partly drawn) [N-propanoyl-D-glucosamine, N-Propanoyl-D-glucosamine]
appearance of treated forearm skin compared with untreated forearm [1]: firmer, smooth, plump and minimally wrinkled when lifted | appearance of treated forearm skin compared with untreated forearm ([1]; listed as N-propanoyl-glucosamine): firmer, smooth, plump, minimally wrinkled when lifted | increase in skin thickness ([1]; left forearm, person, after 4 weeks): 8% | increase in skin thickness ([1]; left forearm, person, after 5 weeks): 19% | increase in skin thickness ([1]; left forearm, person, after 6 weeks): 23% | increase in skin thickness ([1]; left forearm, person, after 8 weeks): 33% | increase in skin thickness ([1]; left forearm, person, after 9 weeks): 28% | increase in skin thickness ([1]; left forearm, subject with photoaging skin, 8 weeks): 33% | increase in skin thickness ([1]; right forearm, person, after 4 weeks): 13% | increase in skin thickness ([1]; right forearm, person, after 6 weeks): 27% | change of wrinkles [2]: wrinkles improved significantly | time skin remained free of itch ([3]; single topical application to atopic eczema lesion): 12 h | itch after topical application ([3]; topical to atopic eczema lesion, a few minutes after application): the itch disappeared completely

Reference: patent US20090186853A1, “COMPOSITIONS COMPRISING N-PROPANOYL DERIVATIVES OF AMINO ACIDS, AMINOCARBOHYDRATES AND DERIVATIVES THEREOF” (priority 2005, published 2009)
